# Columns and labels:
# [1] = 5 consecutive days oral toxicity study in CD-1 mice; assay type: in vivo; conditions: 30 mg/kg/day orally once daily for 5 consecutive days
# Method: The toxicity of Compound 1 was assessed for several dosing regimens for CD-1 mice, Beagle dogs, and cynomolgus monkeys.
# [2] = 14-day daily oral repeated-dose DRF study in cynomolgus monkeys (mesylate salt); assay type: in vivo; conditions: for half-life / AUC(0-t) / Cmax / Tmax: cynomolgus monkey, plasma
# Method: The objective of this exploratory study was to assess the TK profile of Compound 1 when repeatedly administered via the oral route to cynomolgus monkeys.
# Compound 1 (mesylate salt) administration in this dose-range-finder study was intended once daily for up to 14 consecutive days by oral gavage to groups of naïve cynomolgus monkeys (n=1/sex/group) at dose levels of 0.5, 4, 8, or 12 mg Compound 1 per kg bodyweight and day, using a staggered approach. The vehicle was 0.5% Methylcellulose in water. The actual dose levels and durations of dosing were flexibly adapted according to signs of tolerability and PK: Group 1 animals were dosed at 0.5 mg/kg/day for 10 days and after a 4-day washout phase for additional 12 days at 4 mg/kg/days; Group 2 animals at 12 mg/kg/day for 11 days; Group 3 animals at 8 mg/kg for 10 (males) or 9 (females) days; and Group 4 animals at 8 mg/kg for 5 days, respectively, as summarized in Table 10.
# The animals in the final group 4 were dosed orally once daily or 5 days with 8 mg/kg Compound 1 before a 9-day recovery phase was given.
# [3] = 28-day once weekly oral repeated-dose DRF study in CD-1 mice (mesylate salt), plasma; assay type: in vivo; conditions: male; for Tmax / Cmax / AUC(0-t) / half-life: CD-1, mouse, plasma, po; for AUC(0-t): read-out: AUC0-8h
# Method: This study explored the PK of Compound 1 after once weekly oral administration of 300 and 600 mg/kg/week for 4 consecutive weeks to male CD-1 mice.
# Compound 1 (mesylate salt) was administered in 4 weekly doses by oral gavage to groups of male CD-1 mice (n=3/group) at dose levels of 300 and 600 mg/kg bodyweight per week. A suspension of 0.5% methylcellulose (w/v) in sterile water served as vehicle. Blood samples for PK analysis were collected after the second (Day 8) and fourth (Day 22) dosing at pre-dose, 0.25, 0.5, 1, 2, 4, 8, and 24 hours (the latter time point only after the 2nd dose) after administration.
# Total plasma concentrations of Compound 1 were analyzed using a qualified LC-MS/MS method.
# [4] = system: NCI-H660; assay: NCI-H660 prostate cancer CDX mouse model; assay type: in vivo; conditions: for Tumor growth inhibition: 6 weeks
# Description: Left panel: Tumor growth curves. Right panel: Body weight development. The dosing regimen is indicated as dots below the curves. BID: twice daily treatment. QW: once weekly treatment. p.o.: per oral.
# NCI-H660 cells represent a rather far advanced PC type in which not only the tumor suppressor functions of Rb1 and p53 have been lost (see Table 1). Furthermore, the cells already have developed a small cell phenotype characteristic of advanced treatment-resistant PC. In contrast, 22Rv1 tumor cells that are wild-type for Rb1 and p53 pathways were less sensitive to Compound 1 treatment when a once weekly dosing scheme was used.
# Values larger than 100% indicate tumor regression.
# [5] = system: DU-145 cells; assay: Annexin V staining; assay type: cell-based
# [6] = system: LNCaP cells; assay: Cell cycle distribution with siRNA-mediated knock-down of Rb and p53; assay type: cell-based; conditions: LNCaP treated with Rb/p53 siRNA, 24 h
# Method: Top panel: Cell cycle distribution in LNCap cells treated with siRNA (2 bars on the right) in comparison to control LNCaP cells without siRNA treatment (2 bars in the middle), in the absence (−) or presence (+) of Compound 1 for 24 h at the indicated concentration. For comparison, DU-145 cells harboring a combined Rb1 and p53 loss-of-function are included (2 bars on the left). Lower panel: Western blot analysis according to the same experimental conditions as given for the top panel.
# In in vitro studies using LNCaP PC cells, harboring wild-type Rb and p53 genes, the effect of Compound 1 on the cell cycle was investigated in the absence and presence of siRNA-mediated knock-down of Rb and p53 gene expression. […] This effect is hypothesized to be due to Compound 1-mediated perturbation of the interaction between p300 and DDR factors and subsequent impact on the late cell cycle checkpoints and the DDR leading to cell death.
# [7] = Metabolic stability in intestinal microsomes; assay type: in vitro ADME; conditions: monkey compared to human
# Method: In vitro testing also supports the use of mouse, Beagle dog, and cynomolgus monkey models to assay dosing and effectiveness of Compound 1. […] The metabolic profiles of hepatocytes from mouse, dog, and monkey that were cultured with Compound 1 were assessed. Similarly, the metabolic stability of Compound 1 was assayed in vitro using intestinal microsomes from mouse, rat, dog, monkey, and humans.
# [8] = both sexes, po, 0.5 mg/kg, 0.5 mg/kg (Gr. 1), Day 1
# [9] = both sexes, po, 8 mg/kg, 8 mg/kg (Gr. 3), Day 1
# [10] = both sexes, po, 8 mg/kg, 8 mg/kg (Gr. 3), Day 5
# [11] = both sexes, po, 8 mg/kg, 8 mg/kg (Gr. 4), Day 1
# [12] = both sexes, po, 8 mg/kg, 8 mg/kg (Gr. 4), Day 5
# [13] = both sexes, po, 12 mg/kg, 12 mg/kg (Gr. 2), Day 1
# [14] = both sexes, po, 12 mg/kg, 12 mg/kg (Gr. 2), Day 7
# [15] = po, 0.5 mg/kg, 0.5 mg/kg (Gr. 1), Day 7
# [16] = po, 4 mg/kg, 4 mg/kg (Gr. 1), Day 1
# [17] = po, 4 mg/kg, 4 mg/kg (Gr. 1), Day 5
# [18] = po, 4 mg/kg, 4 mg/kg (Gr. 1), Day 11
# [19] = 300 mg/kg, 300 mg/kg/week, 2nd dose (Week 2)
# [20] = 300 mg/kg, 300 mg/kg/week, 4th dose (Week 4)
# [21] = 600 mg/kg, 600 mg/kg/week, 2nd dose (Week 2)
# [22] = 600 mg/kg, 600 mg/kg/week, 4th dose (Week 4)
smiles,measurement,setting,value
"CC(C)C[C@@H]1NCCN([C@@H](CC(C)C)C(=O)N2CCC3(C[C@@H]2C)OCC(CN2CCCC2)CO3)C1=O (stereo partly drawn) [Compound 1, (S)-3-isobutyl-1-((S)-4-methyl-1-((S)-8-methyl-3-(pyrrolidin-1-ylmethyl)-1,5-dioxa-9-azaspiro[5.5]undecan-9-yl)-1-oxopentan-2-yl)piperazin-2-one]",tolerability,[1],well-tolerated
same,half-life,"[2]; both sexes, oral, in general, all groups, read-out: mean terminal plasma elimination half-lives",4.4 to 8.4 h
same,AUC(0-t),[2]; [8],0.7 ng·h/mL
same,Cmax,[2]; [8],0.24 ng/mL
same,Tmax,[2]; [8],1.5 h
same,half-life,"[2]; both sexes, po, 0.5 mg/kg, 0.5 mg/kg (Gr. 1), Day 1, read-out: T1/2 (converted)",4.9 h
same,half-life,"[2]; both sexes, po, 4 mg/kg, 4 mg/kg (Gr. 1), Day 11, read-out: T1/2 (converted)",5.1 h
same,AUC(0-t),[2]; [9],64.9 ng·h/mL
same,Cmax,[2]; [9],21.7 ng/mL
same,Tmax,[2]; [9],1 h
same,half-life,"[2]; both sexes, po, 8 mg/kg, 8 mg/kg (Gr. 3), Day 1, read-out: T1/2 (converted)",4.6 h
same,AUC(0-t),[2]; [10],92 ng·h/mL
same,Cmax,[2]; [10],18.8 ng/mL
same,Tmax,[2]; [10],1 h
same,half-life,"[2]; both sexes, po, 8 mg/kg, 8 mg/kg (Gr. 3), Day 5, read-out: T1/2 (converted)",6.5 h
same,AUC(0-t),[2]; [11],30.4 ng·h/mL
same,Cmax,[2]; [11],8.95 ng/mL
same,Tmax,[2]; [11],1 h
same,half-life,"[2]; both sexes, po, 8 mg/kg, 8 mg/kg (Gr. 4), Day 1, read-out: T1/2 (converted)",5.4 h
same,AUC(0-t),[2]; [12],51.3 ng·h/mL
same,Cmax,[2]; [12],13.8 ng/mL
same,Tmax,[2]; [12],1.5 h
same,half-life,"[2]; both sexes, po, 8 mg/kg, 8 mg/kg (Gr. 4), Day 5, read-out: T1/2 (converted)",6.4 h
same,AUC(0-t),[2]; [13],86 ng·h/mL
same,Cmax,[2]; [13],31.2 ng/mL
same,Tmax,[2]; [13],1 h
same,half-life,"[2]; both sexes, po, 12 mg/kg, 12 mg/kg (Gr. 2), Day 1, read-out: T1/2 (converted)",6.6 h
same,AUC(0-t),[2]; [14],214 ng·h/mL
same,Cmax,[2]; [14],48.8 ng/mL
same,Tmax,[2]; [14],1 h
same,half-life,"[2]; both sexes, po, 12 mg/kg, 12 mg/kg (Gr. 2), Day 7, read-out: T1/2 (converted)",7.4 h
same,Tmax,"[2]; both sexes, po, after oral administration, all groups",1 to 1.5 h
same,AUC(0-t),[2]; [15],1.2 ng·h/mL
same,Cmax,[2]; [15],0.18 ng/mL
same,Tmax,[2]; [15],1 h
same,half-life,"[2]; po, 0.5 mg/kg, 0.5 mg/kg (Gr. 1), Day 7, read-out: T1/2 (converted)",18.5 h
same,AUC(0-t),[2]; [16],10.5 ng·h/mL
same,Cmax,[2]; [16],2.95 ng/mL
same,Tmax,[2]; [16],1 h
same,half-life,"[2]; po, 4 mg/kg, 4 mg/kg (Gr. 1), Day 1, read-out: T1/2 (converted)",4.4 h
same,AUC(0-t),[2]; [17],9.5 ng·h/mL
same,Cmax,[2]; [17],2.3 ng/mL
same,Tmax,[2]; [17],1 h
same,half-life,"[2]; po, 4 mg/kg, 4 mg/kg (Gr. 1), Day 5, read-out: T1/2 (converted)",8.4 h
same,AUC(0-t),[2]; [18],10.9 ng·h/mL
same,Cmax,[2]; [18],3.06 ng/mL
same,Tmax,[2]; [18],1 h
same,tolerability,[2]; daily 0.5 and 4 mg/kg/day for 10 or 12 days,tolerated
same,tolerability,[2]; daily 8 and 12 mg/kg/day for 10 days,not tolerated
same,Tmax,"[3]; 300 mg/kg, 300 mg/kg/week, 2nd dose",1 h
same,Cmax,[3]; [19],8130 ng/mL
same,AUC(0-t),[3]; [19],13600 ng·h/mL
same,Tmax,"[3]; 300 mg/kg, 300 mg/kg/week, 4th dose",1.3 h
same,Cmax,[3]; [20],8370 ng/mL
same,AUC(0-t),[3]; [20],38200 ng·h/mL
same,Tmax,"[3]; 600 mg/kg, 600 mg/kg/week, 2nd dose",5.7 h
same,Cmax,[3]; [21],13400 ng/mL
same,AUC(0-t),[3]; [21],47800 ng·h/mL
same,Tmax,"[3]; 600 mg/kg, 600 mg/kg/week, 4th dose",0.5 h
same,Cmax,[3]; [22],28800 ng/mL
same,AUC(0-t),[3]; [22],125000 ng·h/mL
same,half-life,"[3]; 300 mg/kg/week, 2nd dose",4.1 h
same,half-life,"[3]; 600 mg/kg/week, 4th dose",85.8 h
same,tolerability,[3]; once weekly orally for 4 weeks at 300 and 600 mg/kg/week,well tolerated
same,Tumor growth inhibition,"[4]; once weekly 15 mg/kg/day, p 0.002",74% (0.002)/
same,Tumor growth inhibition,"[4]; once weekly 30 mg/kg/day, p 0.001",84% (0.001)
same,tumor growth,[4]; once weekly 60 mg/kg,complete block of tumor growth
same,Tumor growth inhibition,"[4]; once weekly 60 mg/kg/day single dose, p <0.001",99% (<0.001)/*6 weeks
same,Annexin V staining,[5],induction of apoptosis
same,cell cycle response,[6],increase of cells in the S-phase
same,stability in intestinal microsomes,[7],lower stability
